Experimental data published in US7202280B2, “Methods for the treatment and prevention of pancreatitis and for induction of liver regeneration” (priority 2002, dated 2007).

Test system: syngenic and metallothionein-SSAT mice
Experiment: Hepatic, pancreatic and renal polyamine concentration in syngenic and metallothionein-SSAT mice after analogue
Assay type: in vivo, mouse
Conditions: 24 h before sacrifice
Description: α-methylspermidine, Bis-α-methylspermine and α-methylspermine were administered in saline. […] The data are expressed as means ±S.D. For statistical analysis, the two-tailed Student's t test was used.

[1] = Tg (transgenic) mice, 12.5 mg/kg
[2] = Tg (transgenic) mice, 37.5 mg/kg

CC(N)CCNCCCCNCCCN (stereo not drawn) [α-methylspermine, 1-methylspermine]
renal polyamine concentration, Putrescine (Sg (syngenic) mice, 50 mg/kg): 160.04 pmoles/mg tissue wet weight | renal polyamine concentration, Spermidine (Sg (syngenic) mice, 50 mg/kg): 193.19 pmoles/mg tissue wet weight | renal polyamine concentration, Spermine (Sg (syngenic) mice, 50 mg/kg): 258.42 pmoles/mg tissue wet weight | hepatic concentration, α-Methylspermine [1]: 138.89 pmoles/mg tissue wet weight | hepatic polyamine concentration, N^1-Acetylspermidine [1]: 242.81 pmoles/mg tissue wet weight | hepatic polyamine concentration, Putrescine [1]: 857.28 pmoles/mg tissue wet weight | hepatic polyamine concentration, Spermidine [1]: 717.42 pmoles/mg tissue wet weight | hepatic polyamine concentration, Spermine [1]: 62.74 pmoles/mg tissue wet weight | pancreatic concentration, α-Methylspermine [1]: 132.85 ± 26.34 pmoles/mg tissue wet weight | pancreatic polyamine concentration, N^1-Acetylspermidine [1]: 154.67 pmoles/mg tissue wet weight | pancreatic polyamine concentration, Putrescine [1]: 5691.31 pmoles/mg tissue wet weight | pancreatic polyamine concentration, Spermidine [1]: 2304.42 pmoles/mg tissue wet weight | pancreatic polyamine concentration, Spermine [1]: 42.35 pmoles/mg tissue wet weight | renal concentration, α-Methylspermine [1]: 198.34 ± 10.11 pmoles/mg tissue wet weight | renal polyamine concentration, N^1-Acetylspermidine [1]: 38.55 pmoles/mg tissue wet weight | renal polyamine concentration, N^8-Acetylspermidine [1]: 24.62 pmoles/mg tissue wet weight | renal polyamine concentration, Putrescine [1]: 58.16 pmoles/mg tissue wet weight | renal polyamine concentration, Spermidine [1]: 247.60 pmoles/mg tissue wet weight | renal polyamine concentration, Spermine [1]: 208.03 pmoles/mg tissue wet weight | hepatic concentration, α-Methylspermidine (Tg (transgenic) mice, 25 mg/kg): 197.89 ± 47.51 pmoles/mg tissue wet weight | hepatic concentration, α-Methylspermine (Tg (transgenic) mice, 25 mg/kg): 145.99 pmoles/mg tissue wet weight | hepatic polyamine concentration, N^1-Acetylspermidine (Tg (transgenic) mice, 25 mg/kg): 317.98 pmoles/mg tissue wet weight | hepatic polyamine concentration, N^8-Acetylspermidine (Tg (transgenic) mice, 25 mg/kg): 36.49 pmoles/mg tissue wet weight | hepatic polyamine concentration, Putrescine (Tg (transgenic) mice, 25 mg/kg): 872.47 pmoles/mg tissue wet weight | hepatic polyamine concentration, Spermidine (Tg (transgenic) mice, 25 mg/kg): 349.61 pmoles/mg tissue wet weight | hepatic polyamine concentration, Spermine (Tg (transgenic) mice, 25 mg/kg): 49.71 pmoles/mg tissue wet weight | pancreatic concentration, α-Methylspermine (Tg (transgenic) mice, 25 mg/kg): 130.62 ± 33.84 pmoles/mg tissue wet weight | pancreatic polyamine concentration, N^1-Acetylspermidine (Tg (transgenic) mice, 25 mg/kg): 327.88 pmoles/mg tissue wet weight | pancreatic polyamine concentration, Putrescine (Tg (transgenic) mice, 25 mg/kg): 5798.24 pmoles/mg tissue wet weight | pancreatic polyamine concentration, Spermidine (Tg (transgenic) mice, 25 mg/kg): 2449.50 pmoles/mg tissue wet weight | pancreatic polyamine concentration, Spermine (Tg (transgenic) mice, 25 mg/kg): 37.63 pmoles/mg tissue wet weight | renal concentration, α-Methylspermine (Tg (transgenic) mice, 25 mg/kg): 227.76 ± 11.79 pmoles/mg tissue wet weight | renal polyamine concentration, N^1-Acetylspermidine (Tg (transgenic) mice, 25 mg/kg): 42.95 pmoles/mg tissue wet weight | renal polyamine concentration, N^8-Acetylspermidine (Tg (transgenic) mice, 25 mg/kg): 25.16 pmoles/mg tissue wet weight | renal polyamine concentration, Putrescine (Tg (transgenic) mice, 25 mg/kg): 68.39 pmoles/mg tissue wet weight | renal polyamine concentration, Spermidine (Tg (transgenic) mice, 25 mg/kg): 156.66 pmoles/mg tissue wet weight | renal polyamine concentration, Spermine (Tg (transgenic) mice, 25 mg/kg): 209.57 pmoles/mg tissue wet weight | hepatic concentration, α-Methylspermidine [2]: 274.07 ± 18.43 pmoles/mg tissue wet weight | hepatic concentration, α-Methylspermine [2]: 203.75 pmoles/mg tissue wet weight | hepatic polyamine concentration, N^1-Acetylspermidine [2]: 180.48 pmoles/mg tissue wet weight | hepatic polyamine concentration, N^8-Acetylspermidine [2]: 14.15 pmoles/mg tissue wet weight | hepatic polyamine concentration, Putrescine [2]: 774.33 pmoles/mg tissue wet weight | hepatic polyamine concentration, Spermidine [2]: 305.70 pmoles/mg tissue wet weight | hepatic polyamine concentration, Spermine [2]: 47.47 pmoles/mg tissue wet weight | pancreatic concentration, α-Methylspermine [2]: 105.85 ± 91.76 pmoles/mg tissue wet weight | pancreatic polyamine concentration, N^1-Acetylspermidine [2]: 176.49 pmoles/mg tissue wet weight | pancreatic polyamine concentration, Putrescine [2]: 7426.10 pmoles/mg tissue wet weight | pancreatic polyamine concentration, Spermidine [2]: 2106.09 pmoles/mg tissue wet weight | pancreatic polyamine concentration, Spermine [2]: 51.89 pmoles/mg tissue wet weight | renal concentration, α-Methylspermine [2]: 224.06 ± 27.10 pmoles/mg tissue wet weight | renal polyamine concentration, N^1-Acetylspermidine [2]: 32.33 pmoles/mg tissue wet weight | renal polyamine concentration, N^8-Acetylspermidine [2]: 24.59 pmoles/mg tissue wet weight | renal polyamine concentration, Putrescine [2]: 95.60 pmoles/mg tissue wet weight | renal polyamine concentration, Spermidine [2]: 233.85 pmoles/mg tissue wet weight | renal polyamine concentration, Spermine [2]: 158.91 pmoles/mg tissue wet weight | hepatic concentration, α-Methylspermidine (Tg (transgenic) mice, 50 mg/kg): 255.30 ± 60.90 pmoles/mg tissue wet weight | hepatic concentration, α-Methylspermine (Tg (transgenic) mice, 50 mg/kg): 168.36 pmoles/mg tissue wet weight | hepatic polyamine concentration, N^1-Acetylspermidine (Tg (transgenic) mice, 50 mg/kg): 265.90 pmoles/mg tissue wet weight | hepatic polyamine concentration, Putrescine (Tg (transgenic) mice, 50 mg/kg): 1057.25 pmoles/mg tissue wet weight | hepatic polyamine concentration, Spermidine (Tg (transgenic) mice, 50 mg/kg): 196.67 pmoles/mg tissue wet weight | hepatic polyamine concentration, Spermine (Tg (transgenic) mice, 50 mg/kg): 38.02 pmoles/mg tissue wet weight | pancreatic concentration, α-Methylspermine (Tg (transgenic) mice, 50 mg/kg): 185.90 ± 20.82 pmoles/mg tissue wet weight | pancreatic polyamine concentration, N^1-Acetylspermidine (Tg (transgenic) mice, 50 mg/kg): 284.83 pmoles/mg tissue wet weight | pancreatic polyamine concentration, Putrescine (Tg (transgenic) mice, 50 mg/kg): 9027.03 pmoles/mg tissue wet weight | pancreatic polyamine concentration, Spermidine (Tg (transgenic) mice, 50 mg/kg): 3570.11 pmoles/mg tissue wet weight | pancreatic polyamine concentration, Spermine (Tg (transgenic) mice, 50 mg/kg): 70.53 pmoles/mg tissue wet weight | renal concentration, α-Methylspermine (Tg (transgenic) mice, 50 mg/kg): 319.33 ± 19.28 pmoles/mg tissue wet weight | renal polyamine concentration, N^1-Acetylspermidine (Tg (transgenic) mice, 50 mg/kg): 44.20 pmoles/mg tissue wet weight | renal polyamine concentration, N^8-Acetylspermidine (Tg (transgenic) mice, 50 mg/kg): 24.48 pmoles/mg tissue wet weight | renal polyamine concentration, Putrescine (Tg (transgenic) mice, 50 mg/kg): 91.94 pmoles/mg tissue wet weight | renal polyamine concentration, Spermidine (Tg (transgenic) mice, 50 mg/kg): 155.85 pmoles/mg tissue wet weight | renal polyamine concentration, Spermine (Tg (transgenic) mice, 50 mg/kg): 205.04 pmoles/mg tissue wet weight
